Results as given in publication PMC11045757, “Group 3 medulloblastoma transcriptional networks collapse under domain specific EP300/CBP inhibition” (Nature Communications, 2024).
Values joined by “and” are separate entries in the source; they are usually repeats but may differ in a detail not shown here. Identical values can stand only once. Like-named read-outs stand apart in the source and are kept apart here.

Tests used:
[1] = test system: HDMB03 (HDMBO3) group 3 medulloblastoma cells; assay: CellTiter-Glo dose-response growth assay; assay type: cell-based; details: HDMBO3 G3MB cell growth, read-out: IC50 (nM) HDMBO3
Procedure: CellTiter-Glo assay was performed as per the manufacturer’s instructions, at the noted timepoint after compound treatment or plating. For Kelly, TE617T, RhJT, NCIH2122, NCIH650 and 143B, 500 cells were plated in normal growth media per well in a 384-well plate (Corning). HDMB03 and MB002 cells were plated in growth media at 500 cells/well in a 384-well plate. […] Cells were incubated for the noted timepoints prior to performing CellTiter-Glo assay as per the manufacturer’s instructions, and reading plates on an Envision 2104 microplate reader.

[2] = target: GFP-tagged CBP bromodomain (Homo sapiens, UniProt Q92793); assay: Microscale thermophoresis (MST); assay type: binding
Chain of GFP-tagged CBP bromodomain (Q92793 1085-1192 limits assumed): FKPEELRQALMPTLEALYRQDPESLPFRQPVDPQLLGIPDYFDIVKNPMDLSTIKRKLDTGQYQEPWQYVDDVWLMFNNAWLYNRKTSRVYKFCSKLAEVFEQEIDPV
Procedure: MST experiments were performed in a Monolith NT.115 Pico instrument (NanoTemper Technologies) following published procedures. […] MST traces were recorded using standard parameters: 5 s MST power off, 30 s MST power on and 5 s MST power off. Measurements were taken at -1-0 s (cold region) and 10 s (hot region) and data were analyzed using the NTAnalysis software.

[3] = target: T1, BRD4-BD1 (BRD4-1) (Homo sapiens, UniProt O60885); assay: Isothermal titration calorimetry (ITC); assay type: binding; details: relative to CCS1477
T1 construct: BRD4-BD1 (residues 44-168); 6xHis (cleaved yes); host or cells: E. coli BL21 (DE3) RIL
Procedure: At OD600 of 0.6, the culture was cooled down to 18 °C and induced with 0.1 mM IPTG. After 18 h growth, the culture was harvested by centrifugation at 6000 × g for 25 min and stored at -80 °C. Harvested cell pellets were re-suspended in 50 mM Na/K phosphate buffer (pH 7.4) containing 100 mM NaCl, 40 mM imidazole, 0.01% w/v lysozyme and 0.01% v/v Triton X-100 at 4 °C for 1 h, subjected to sonication and the lysate was clarified by centrifugation (30,000 × g for 45 min at 4 °C). Proteins were purified by FPLC at 4 °C using columns and chromatography materials from GE Healthcare. […] Proteins were purified to homogeneity by size exclusion chromatography using Superdex 75 equilibrated with elution buffer (50 mM HEPES pH 7.5, 100 mM NaCl, 2 mM DTT). All BRDs eluted as monomeric protein and were of crystallization grade quality (>95% purity as judged by SDS-PAGE). Pool fractions were combined, concentrated to 10–12 mg/ml, and aliquots were flash-frozen in liquid N2 and stored at −80 °C.
All experiments were conducted using an PEAQ-ITC calorimeter (Malvern Scientific). BRDs were buffer exchanged using PD10 columns (GE life sciences) into 50 mM HEPES pH7.5 and 100 mM NaCl (ITC buffer) before the experiment and concentrated to ∼10 mg/mL. Experiments were carried out in ITC buffer while stirring at 750 rpm through reverse titration. The microsyringe (40 μL load volume) was loaded with the protein sample (250–600 μM protein in ITC buffer) and inserted into the calorimetric cell (0.2 mL cell volume) consisting of compound (20–60 μM in ITC buffer). All titrations were conducted using an initial control injection of 0.2 μL followed by 13 identical injections (~3 μL per injection) with a duration of 2 s (per injection) and a spacing of 150 s between injections. The ratio of protein/compound was optimized to ensure complete saturation of the titrant before the final injection to ensure proper baseline determination. Data were corrected for dilution and analyzed using the MicroCal Origin software to determine the enthalpies of binding (ΔH) and binding constants as described. Thermodynamic parameters were calculated using the basic equation of thermodynamics (ΔG = ΔH − TΔS = −RTlnKB) where ΔG, ΔH and ΔS are the changes in free energy, enthalpy and entropy of binding, respectively. A single binding site model was used for all ligand-protein interactions.

[4] = target: T1, BRD4-BD1 (BRD4-1); assay: Differential scanning fluorimetry (DSF) thermal shift; assay type: binding; details: DSF; for ∆Tm (°C) BRD4-1: 5 μM protein, 100 μM compound, three independent experiments, average ± SD; for ΔTm (°C) BRD4-BD1: Figure 3A
Summary of the method: (§1)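 Thermal shift of 5 μM E. coli-expressed bromodomain with 100 μM compound in 50 mM HEPES pH 7.5, 150 mM NaCl, 2 mM DTT, 2% DMSO, 5X SYPRO Orange, quadruplicate. Heated 25→95 °C at 1 °C/min, fluorescence at 610 nm; ΔTm relative to DMSO reference wells.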

[5] = target: T2, EP300 bromodomain (Homo sapiens, UniProt Q09472); assay: as above; assay type: binding; details: DSF; for ∆Tm (°C) EP300: 5 μM protein, 100 μM compound, three independent experiments, average ± SD; for ΔTm (°C) EP300: Figure 3B
T2 construct: 6xHis (cleaved yes); host or cells: E. coli BL21 (DE3) RIL
T2 sequence (Q09472 1048-1161): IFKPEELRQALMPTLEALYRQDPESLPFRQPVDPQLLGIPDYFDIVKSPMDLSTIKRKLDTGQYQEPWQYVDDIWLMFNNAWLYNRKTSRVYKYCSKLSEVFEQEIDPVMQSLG
Summary of the method: as §1

[6] = target: T3, CBP bromodomain (Homo sapiens, UniProt Q92793); assay: as above; assay type: binding; details: for ∆Tm (°C) CBP / ΔTm (°C) CBP: DSF; for ∆Tm (°C) CBP: 5 μM protein, 100 μM compound, three independent experiments, average ± SD; for DSF ΔTm (°C): Figure 3C, DSF (values equal CBP column)
T3 construct: CBP (residues 1081-1197); 6xHis (cleaved yes); host or cells: E. coli BL21 (DE3) RIL
T3 sequence (Q92793 1081-1197): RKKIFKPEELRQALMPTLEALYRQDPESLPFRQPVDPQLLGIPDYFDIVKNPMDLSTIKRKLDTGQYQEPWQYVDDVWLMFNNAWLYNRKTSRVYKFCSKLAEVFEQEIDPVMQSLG

[7] = test system: CBP bromodomain; assay: as above; assay type: binding; details: ΔTm (CBP)/ΔTm(BRD4)
[8] = three independent MST experiments, average ± SD, read-out: Kd (nM) CBP

## COC1CCC(n2c(C3CCCC(=O)N3)nc3cc(-c4c(C)noc4C)ccc32)CC1 (stereo not drawn) [Compound 2]
[1]
  IC50: > 100000 nM
[2]; MO.Affinity Analysis export, single runs, target clGFP-CBPBRD 5e-8, unit inferred, listed as CCS1477int2, read-out: Kd (fit result of individual MST run)
  Kd: 1770 nM and 1540 nM and 2010 nM
[2]; [8]
  Kd: 1770 ± 234 nM
[3]
  reduction of activity against BRD4: ~ 10 fold
[4]
  ∆Tm (°C) BRD4-1: 2.9 ± 0.11 °C
  ΔTm (°C) BRD4-BD1: 2.9 °C
[4]; listed as CCS1447int2
  ∆Tm (°C) BRD4-1: 2.9 °C
[5]
  ∆Tm (°C) EP300: 5.6 ± 0.12 °C
  ΔTm (°C) EP300: 5.6 °C
[6]
  ∆Tm (°C) CBP: 5.6 ± 0.05 °C
  DSF ΔTm (°C): 5.6 °C
[6]; listed as CCS1447int2
  ∆Tm (°C) CBP: 5.6 °C
[6]; Figure 3A, CBP bromodomain
  ΔTm (°C) CBP: 5.6 °C
[6]; Figure 3B, CBP
  ΔTm (°C) CBP: 5.6 °C
[7]
  Ratio CBP/BRD4 of ∆Tm: 1.9

## COC1CCC(n2c(C3CCCC(=O)N3c3cc(C(F)(F)F)cc(C(F)(F)F)c3)nc3cc(-c4c(C)noc4C)ccc32)CC1 (stereo not drawn) [Compound 4]
[1]; Homo sapiens, HD-MB03
  IC50: 271 ± 62 nM
[2]; Figure 3C, MST, read-out: MST Kd
  Kd: 116 nM
[2]; MST raw response, Dose 1.52588e-10, single replicate run, listed as iCBP-4
  Response (Dose Response Curve): 892.093 and 891.258 and 891.615
[2]; MST raw response, Dose 3.05176e-10, point marked as outlier and left out of the fit
  Response (Dose Response Curve (Outliers)): 895.82
[2]; MST raw response, Dose 3.05176e-10, single replicate run, listed as iCBP-4
  Response (Dose Response Curve): 892.272 and 892.058
[2]; MST raw response, Dose 6.10352e-10, single replicate run, listed as iCBP-4
  Response (Dose Response Curve): 892.269 and 892.744 and 892.22
[2]; MST raw response, Dose 1.2207e-9, single replicate run, listed as iCBP-4
  Response (Dose Response Curve): 892.399 and 891.675 and 892.288
[2]; MST raw response, Dose 2.44141e-9, single replicate run, listed as iCBP-4
  Response (Dose Response Curve): 891.725 and 891.585 and 891.994
[2]; MST raw response, Dose 4.88281e-9, single replicate run, listed as iCBP-4
  Response (Dose Response Curve): 891.567 and 892.575 and 891.165
[2]; MST raw response, Dose 9.76563e-9, single replicate run, listed as iCBP-4
  Response (Dose Response Curve): 891.493 and 891.567 and 891.238
[2]; MST raw response, Dose 1.95313e-8, single replicate run, listed as iCBP-4
  Response (Dose Response Curve): 891.688 and 891.424 and 891.76
[2]; MST raw response, Dose 3.90625e-8, single replicate run, listed as iCBP-4
  Response (Dose Response Curve): 892.161 and 891.262 and 889.541
[2]; MST raw response, Dose 7.8125e-8, single replicate run, listed as iCBP-4
  Response (Dose Response Curve): 890.263 and 890.555 and 890.434
[2]; MST raw response, Dose 1.5625e-7, single replicate run, listed as iCBP-4
  Response (Dose Response Curve): 890.147 and 890.553 and 889.395
[2]; MST raw response, Dose 3.125e-7, single replicate run, listed as iCBP-4
  Response (Dose Response Curve): 888.926 and 888.984 and 889.107
[2]; MST raw response, Dose 6.25e-7, single replicate run, listed as iCBP-4
  Response (Dose Response Curve): 888.767 and 888.447 and 889.182
[2]; MST raw response, Dose 1.25e-6, single replicate run, listed as iCBP-4
  Response (Dose Response Curve): 887.998 and 889.672 and 887.288
[2]; MST raw response, Dose 2.5e-6, single replicate run, listed as iCBP-4
  Response (Dose Response Curve): 887.993 and 886.376 and 888.472
[2]; MST raw response, Dose 5e-6, single replicate run, listed as iCBP-4
  Response (Dose Response Curve): 887.809 and 888.569 and 888.97
[2]; MST, single replicate run, target clGFP-CBPBRD, TargetConcentration 5e-8, MST-Power Medium, unit inferred, read-out: Kd (Fit Results, Fit Model: Kd)
  Kd: 142 nM and 167 nM and 39.1 nM
[2]; fitted MST response of bound state, single replicate run, target clGFP-CBPBRD 5e-8, listed as iCBP-4
  Bound (Fit Results): 887.684 and 887.776 and 888.434
[2]; fitted MST response of unbound state, single replicate run, target clGFP-CBPBRD 5e-8, listed as iCBP-4
  Unbound (Fit Results): 892.098 and 891.946 and 891.879
[2]; relative to CCS1477
  loss of binding affinity (CBP): ~ 40 fold
[2]; [8]
  Kd: 116 ± 68 nM
[4]
  ∆Tm (°C) BRD4-1: 2.1 ± 0.96 °C
  ΔTm (°C) BRD4-BD1: 2.1 °C
[5]
  ∆Tm (°C) EP300: 9.2 ± 1.5 °C
  ΔTm (°C) EP300: 9.2 °C
[6]
  ∆Tm (°C) CBP: 9.9 ± 1.02 °C
  DSF ΔTm (°C): 9.9 °C
[6]; Figure 3A, CBP bromodomain
  ΔTm (°C) CBP: 9.9 °C
[6]; Figure 3B, CBP
  ΔTm (°C) CBP: 9.9 °C
[7]
  Ratio CBP/BRD4 of ∆Tm: 4.7
